Patent US20190231705A1, “HIGH DRUG LOAD POLYMERIC NANOPARTICLE FORMULATIONS AND METHODS OF MAKING AND USING SAME” (Merck Sharp & Dohme Corp., priority 2018, published 2019)

Assay: Solution content after 80K centrifugation
Format: physicochemical
Conditions: grazoprevir/HPMCAS-L nanoparticle suspension after 80k centrifugation

## C=C[C@@H]1C[C@]1(NC(=O)[C@@H]1C[C@@H]2CN1C(=O)[C@H](C(C)(C)C)NC(=O)O[C@@H]1C[C@H]1CCCCCc1nc3ccc(OC)cc3nc1O2)C(=O)NS(=O)(=O)C1CC1 [grazoprevir, (1aR,5S,8S, 10R,22aR)-N-[(1R,2S)-1-[(cyclopropylsulfonamido)-carbonyl]-2-ethenylcyclopropyl]-14-methoxy-5-(2-methylpropan-2-yl)-3,6-dioxo-1,1a,3,4,5,6,9,10,18,-19,20,21,22,22a-tetradecahydro-8H-7,10-methanocyclopropa[18,19][1,10,3,6]dioxadiaza-cyclononadecino[11,12-b]quinoxaline-8-carboxamide]
  % Grazoprevir in solution: 4.2%
